According to the supplement of paper PMC10307832:

Key:
Assay in all cases: relative viability (nuclei count vs DMSO), 5 days (fraction); higher = more cells survive
[1] = compound: Cc1ccc(C(=O)N(CCCN)[C@@H](c2nc3cc(Cl)ccc3c(=O)n2Cc2ccccc2)C(C)C)cc1 [Ispinesib] + C[C@@H](Oc1cc(-c2cnn(C3CCNCC3)c2)cnc1N)c1c(Cl)ccc(F)c1Cl [Crizotinib] (partner 1 µM)
In short: (§1)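 Five library-drug doses in √10 steps were combined with a fixed anchor-drug dose, or a single drug was given alone, by pin tool to lung cancer cell lines in 1536-well plates the day after seeding. Nuclei were stained and counted after 5 days. Relative viability is the nuclei count in treated wells over that in vehicle wells, taken as the median of duplicate plates.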

[2] = compound: C[C@]1(O)C[C@@H](c2nc(-c3ccc4ccc(-c5ccccc5)nc4c3)c3c(N)nccn32)C1 [Linsitinib] + N=C(N)NC(=N)NCCc1ccccc1 [Phenformin] (partner 250 µM)
In short: as §1

[3] = compound: Cc1ccc(C(=O)N(CCCN)[C@@H](c2nc3cc(Cl)ccc3c(=O)n2Cc2ccccc2)C(C)C)cc1 [Ispinesib] + O=C(CCCCCCC(=O)Nc1ccccc1)NO [Vorinostat] (partner 1 µM)
In short: as §1

[4] = compound: C[C@]1(O)C[C@@H](c2nc(-c3ccc4ccc(-c5ccccc5)nc4c3)c3c(N)nccn32)C1 [Linsitinib] + Cc1nc(NC(=O)N2CCC[C@H]2C(N)=O)sc1-c1ccnc(C(C)(C)C(F)(F)F)c1 [Alpelisib] (partner 2 µM)
In short: as §1

Cell Line	relative viability ([1]; first compound 0.001 µM)	relative viability ([1]; first compound 0.003162 µM)	relative viability ([1]; first compound 0.01 µM)	relative viability ([1]; first compound 0.03162 µM)	relative viability ([1]; first compound 0.1 µM)	relative viability ([2]; first compound 0.01 µM)	relative viability ([2]; first compound 0.03162 µM)	relative viability ([2]; first compound 0.1 µM)	relative viability ([2]; first compound 0.3162 µM)	relative viability ([2]; first compound 1 µM)	relative viability ([3]; first compound 0.001 µM)	relative viability ([3]; first compound 0.003162 µM)	relative viability ([3]; first compound 0.01 µM)	relative viability ([3]; first compound 0.03162 µM)	relative viability ([3]; first compound 0.1 µM)	relative viability ([4]; first compound 0.01 µM)	relative viability ([4]; first compound 0.03162 µM)	relative viability ([4]; first compound 0.1 µM)	relative viability ([4]; first compound 0.3162 µM)	relative viability ([4]; first compound 1 µM)
ChaGo-K-1	1.26	1.3	1.26	0.841	0.894	0.527	0.515	0.499	0.332	0.457	0.838	0.744	0.827	0.765	0.232	–	–	–	–	–
EBC-1	0.189	0.194	0.194	0.167	0.152	–	–	–	–	–	–	–	–	–	–	0.758	0.841	1.05	0.601	0.814
EKVX	1.19	1.34	1.06	0.689	0.196	0.278	0.21	0.235	0.216	0.224	0.741	0.78	0.693	0.623	0.561	0.842	0.848	0.856	0.901	0.756
EMC-BAC-2	0.914	0.847	0.756	0.751	0.481	0.506	0.487	0.485	0.322	0.388	0.539	0.745	0.419	0.147	0.365	0.7	0.689	0.748	0.613	0.667
EPLC-272H	1.06	0.842	1.23	0.883	0.805	0.369	0.335	–	–	0.312	0.351	0.635	0.322	0.128	0.341	0.909	0.942	0.87	–	0.925
H3255	1.09	0.821	0.92	0.58	0.327	0.342	0.354	0.392	0.366	0.375	0.79	1.09	0.804	0.479	0.413	0.605	0.858	0.732	0.591	0.771
HARA	1.33	1.18	1.24	1.06	0.188	0.427	0.469	0.435	–	0.4	0.519	0.567	0.528	0.477	0.389	0.802	0.768	0.732	0.409	0.716
HCC-15	0.892	0.976	0.97	0.489	0.15	0.512	0.46	0.433	–	0.292	0.861	0.976	0.968	0.852	0.344	0.918	0.887	0.952	0.582	0.775
HCC-44	0.796	0.905	0.951	0.776	0.121	0.181	0.232	0.174	0.143	0.136	1.04	1.05	1.15	1.23	1.08	0.751	0.677	0.691	0.499	0.606
